Experimental data published in patent US20250002969A1, “DISCRIMINATION OF ANTIBIOTIC RESISTANT AND SENSITIVE SAMPLES” (priority 2021, published 2025).

What was measured:
[1] = system: Staph. aureus clinical isolates; assay: Growth curves (optical density) of clinical isolates in presence of daptomycin; assay type: cell-based
Description: Growth curves of multiple clinical isolates of the representative bacteria S. aureus as illustrated in FIGS. 4A through 4D were determined using a BioTek Synergy HI plate reader (available from BioTek Instruments (of Agilent Technologies), Winooski, Vermont). S. aureus isolates growth rates were tested in the presence and absence of the representative antibiotic daptomycin. Differential growth rates were identifiable after two hours of the sixteen-hour growth curve. Two-hour differentiation was confirmed by Newton-Raphson root finding method.
(§1) Sample preparation. Clinical isolates of Staph. aureus were obtained from the Urisch laboratory at the UPMC Department of Othopaedic Surgery. Isolates were de-identified according to IRB protocol and were stored in 50% glycerol solution at −80° C. Isolates were streaked for single colonies on mannitol salt agar (MSA) plates and cultures were grown in mannitol salt broth, shaking at 36.5° C. Overnight cultures were then diluted into fresh media and regrown for 2 hours to ensure that bacteria were entering exponential growth phase. Exponentially growing cultures were mixed with media or daptomycin in a 1:1 ratio. Daptomycin was added to 0.5 ml of culture to a final concentration of 0.25 μg/ml. Identical cultures were used in all experiments using PAFC and BioTek HI plate reader. For photoacoustic testing, bacteriophage SP1 was added to a concentration of 1000 phage per bacterial cell. Growth curves were performed for 16 hours with measurements taken once every minute.
Treated and control cultures were placed in a round bottom 96 well culture plate (Falcon microtest 96 well plate 35077, ThermoFisher, Waltham, Massachusetts) and were placed into the BioTek HI plate reader. Optical density (OD) measurements were taken every minute at 600 nm wavelength. Between measurements, the plate was shaken at 100 rpm and maintained at 36.5+C allowing for bacterial growth. The two-hour time point was determined to be sufficient to differentiate the growth rates. Additionally, multiple replicates of each bacterial strain were grown at 36.5° C. in the BioTek HI plate reader and 100 μL was removed and plated on MSA plates every 10 minutes. Growth curves were made directly from these titers for each strain to give a quantifiable number of bacterial cells for each OD.

VRSA = details: cited from earlier work
MRSA = details: cited from earlier work
[2] = system: Staph. aureus clinical isolates; assay: PAFC cell count of clinical isolates in presence of daptomycin, dyed SP1 phage label; assay type: cell-based
Description: All strains were tested in the presence and absence of daptomycin. In a number of studies hereof, cultures were diluted into fresh media and regrown for 2 hours in the presence and absence of […] of daptomycin. Each sample was then incubated at room temperature for 10 minutes with multiple dyed phage per bacterial cell. Incubated samples were then processed through PAFC system 100 and number of detected cells recorded. Isolates were tested in triplicated for both the plate reader and PAFC system.
as §1
Photoacoustic Flow Cytometry. […] Laser beam energy was maintained and measured between 1.9 and 2.1/mJ for all PAFC experiments. […] The laser beam was assumed Gaussian in shape and fluence was calculated to be 0.014 mJ/cm^2 and detection volume was determined to be 0.04 μL.
All strains were tested in the presence and absence of daptomycin. […] Incubated samples were then processed through the PAFC system and number of detected cells recorded. Isolates were tested in triplicate for both the plate reader and PAFC system.

[3] = system: S. aureus clinical isolates; assay: Photoacoustic flow cytometry (PAFC) detections of clinical isolates incubated with oxacillin; assay type: cell-based, Staphylococcus aureus; details: for Treated Detections: oxacillin 1 μmg/ml, 2 hours
Description: In a representative study, total of thirteen samples were tested for the mecA gene using PCR, thus determining their methicillin resistance before photoacoustic testing. Streaks of each S. aureus strain were grown on mannitol salt agar plates. Single colonies from each streak plate were used to regrow strains in mannitol salt broth for 2 hours in a shaking water bath at 36.5 C. That period ensured cells were growing and entering exponential growth phase. Oxacillin was added at a final concentration of 1 μmg/ml to half of each culture and grown for an additional 2 hours. Before processing through PAFC system, 100 μl from each culture was removed and used for growth analysis in an HI plate reader (available from Biotek of Winooski, Vermont). Growth curves were made for each culture by taking the optical density of each treated and untreated culture every minute over a 16-hour period. As described above, it was determined that two hours of antibiotic treatment was sufficient to determine differential growth rates from prior experimentation. Prior to performing photoacoustic testing, treated and untreated samples were incubated side-by-side for two hours. Photoacoustic testing of treated and untreated samples for each isolate were alternated, so that both samples were tested within twenty minutes to allow for similar growth times. Thus, total bacteria number could be compared properly.
To interpret the photoacoustic data provided by the flow cytometer, k-means clustering was used to guide the differentiation between methicillin resistant and susceptible samples. […] K-means, like other clustering methods, takes data points in a space of one or more dimensions and determines natural groupings of those points by proximity. Given a number of clusters, k, the algorithm separates all points into that number of groups. In a representative study, there was an interest in identifying only resistant and susceptible groups. Thus, k=2 was chosen.
The ratio of treated detection numbers over untreated numbers was determined, resulting in 13 numbers which were approximately in the range of 0 to 1. Lower numbers indicate that oxacillin was effective in decreasing the S. aureus population. However, there was no ad hoc threshold for determining antibiotic resistance. K-means with two clusters was applied to the data set using the MATLAB programming language (available from Math Works of Natick, Massachusetts). The MATLAB function, kmeans, uses Lloyd's algorithm. For simplicity, Euclidean distance was used for measuring and establishing iterative clusters.
Because the sample size was relatively small and the distribution was not obviously Gaussian, a nonparametric test was performed to compare the means of the bacterial counts before and after treatment with oxacillin. Using a Wilcoxon matched pairs signed rank test, a p-value of 0.0007 was calculated.
Photoacoustic Flow Cytometry. A 1000 μm optical fiber with numerical aperture of 0.39 (Thorlabs, Newton, New Jersey) was used to deliver laser light at 532 nm with a 5 ns pulse duration from a Nd:YAG laser (Litron Nano, Boseman, Montana). Laser beam energy was maintained and measured between 1.9 and 2.1/mJ for all PAFC experiments. The optical fiber was placed 5 mm away from a quartz tube (Quartz 10 QZ, Charles Supper, Natick, Massachusetts) with 10 μm thick walls. Samples were pumped through the quartz tube inside a 3D printed flow chamber. The laser beam was assumed Gaussian in shape and fluence was calculated to be 0.014 mJ/cm^2 and detection volume was determined to be 0.04 μL.

CCCCCCCCCC(=O)N[C@@H](Cc1c[nH]c2ccccc12)C(=O)N[C@H](CC(N)=O)C(=O)N[C@@H](CC(=O)O)C(=O)N[C@@H]1C(=O)NCC(=O)N[C@@H](CCCN)C(=O)N[C@@H](CC(=O)O)C(=O)N[C@H](C)C(=O)N[C@@H](CC(=O)O)C(=O)NCC(=O)N[C@H](CO)C(=O)N[C@@H]([C@H](C)CC(=O)O)C(=O)N[C@@H](CC(=O)c2ccccc2N)C(=O)O[C@@H]1C [daptomycin]
growth (optical density) treated vs untreated ([1]; heterogeneous strain A, FIG. 4C): delay of exponential growth
growth (optical density) treated vs untreated ([1]; heterogeneous strain B, FIG. 4D): no delay in initial growth is observed but severe retardation of growth starting at 1.5 hours
growth (optical density) treated vs untreated ([1]; resistant clinical isolate, FIG. 4B, 2 h and 16 h): no delay or inhibition of growth
growth (optical density) treated vs untreated ([1]; susceptible clinical isolate, FIG. 4A, 2 h and 16 h): complete inhibition of growth
MIC (VRSA): > 4 µg/mL
MIC (MRSA): 0.25 to 1 µg/mL
cells detected by PAFC, treated vs untreated ([2]; heterogeneous resistant strains): intermediary number of cells detected
cells detected by PAFC, treated vs untreated ([2]; homogeneous resistant strains): identical or nearly identical numbers of cells
cell count via photoacoustic detection ([2]; susceptible clinical isolate, FIG. 4A, two-hour timepoint): zero detection

Cc1onc(-c2ccccc2)c1C(=O)N[C@@H]1C(=O)N2[C@@H]1SC(C)(C)[C@@H]2C(=O)O [oxacillin]
Treated Detections ([3]; isolate B1899 (mecA Yes)): 404
Treated Detections ([3]; isolate K3237 (mecA No)): 44
Treated Detections ([3]; isolate K3251 (mecA No)): 7
Treated Detections ([3]; isolate K3255 (mecA No)): 53
Treated Detections ([3]; isolate K3261 (mecA Yes)): 135
Treated Detections ([3]; isolate K3262 (mecA No)): 10
Treated Detections ([3]; isolate K3266 (mecA No)): 18
Treated Detections ([3]; isolate K3268 (mecA Yes)): 110
Treated Detections ([3]; isolate K3270 (mecA Yes)): 134
Treated Detections ([3]; isolate K3279 (mecA Yes)): 175
Treated Detections ([3]; isolate K3280 (mecA Yes)): 179
Treated Detections ([3]; isolate K3282 (mecA Yes)): 689
Treated Detections ([3]; isolate K3287 (mecA No)): 2
mean ratio of treated to untreated ([3]; second subgroup, markedly different growth): 0.10
mean ratio of treated to untreated ([3]; subgroup with similar growth rates (isolates with mecA gene)): 0.87
